# Data reported in US20050215544A1, “Methods of treating HIV infection” (priority 2004, published 2005).
# Tests used:
# [1] = test system: HIV-1 LAI; assay: Two-drug combination antiviral assay with Compound 1 (combination indices, Chou and Rideout); assay type: cell-based; settings: combination with Compound 1; for Combination Indices at 50% HIV Inhibition (Confidence Interval) / Combination Indices at 75% HIV Inhibition (Confidence Interval) / Combination Indices at 90% HIV Inhibition (Confidence Interval): 95% CI in parenthesis; for Overall Result of two-drug combination: all ratios and inhibition levels
# Protocol: (§1) Virus and cell lines. The T-cell lines, MT-2 and PM-1 were obtained through the AIDS Research and Reference Reagent Program, NIAID, and were contributed by Dr. D. Richman and Dr. R. Gallo, respectively. Both cell lines were cultured in RPMI 1640 medium supplemented with 10% fetal bovine serum, 2 mM L-glutamine and sub-cultured twice a week. The LAI strain of HIV-1 was obtained from the Fred Hutchinson Cancer Research Center, and the Bal strain was from NIH. Both virus stocks were amplified and titered in MT-2 cells (LAI) and PM-1 cells (Bal) using a virus infectivity assay.
# (§2) Drug Susceptibility and Cytotoxicity Assays. For drug susceptibility assays, MT-2 cells were infected with HIV-1 LAI (or PM-1 cells with HIV-1 Bal) at an MOI of 0.005, and seeded into 96-well microtiter plates ([…] cells/ml) containing serial dilutions of test compounds. […] Each drug ratio consisted of an array of 3-fold serial dilutions, and was performed in quadruplicate. The plates were incubated at 37° C./5% CO2. The MT-2 cells infected with HIV-1 LAI were incubated for 5 days. On day-five post-infection, 20 μl from each well was harvested and quantitated by a reverse transcriptase (RT) assay, or in samples involving non-nucleoside RT inhibitors, an MTS assay. The PM-1 cells infected with HIV-1 Bal and used for studying the combinations with CCR5 inhibitors were incubated for six days. On day-six post-infection, 20 μl from each well was harvested, 20- and 50-fold diluted and quantitated by p24 assay. Cytotoxicity assays were performed using uninfected cells, exposed to the same drug combinations, and incubated for six days. Cell viability was determined by an MTS assay. The CC50 values were calculated by using the exponential form of the median effect equation as mentioned below for calculation of EC50.
# Analysis of Drug Combination Effects. For determination of CI values, drugs were diluted in a fixed ratio and multiple ratios were analyzed. The drug serial dilutions spanned a range of concentrations near the EC50 value of each compound, so that equivalent antiviral activities could be compared. Concentration-response curves were estimated for each individual drug and every combination using the median-effect equation. The equation was fit using a nonlinear regression routine (Proc Nlin) in PC SAS version 8.01 (SAS Institute Inc., SAS Version 8.01, Cary, NC: SAS Institute Inc., 1990).
# (§3) In this equation, Fa stands for “fraction affected,” and represents the fraction of the viral load that has been inactivated. […] ED50 is drug concentration that is expected to reduce the amount of virus by 50%, and m is a parameter that reflects the slope of the concentration-response curve.
# To assess antiviral effects of different drug combination treatments, combination indices (CIs) were calculated according to Chou and Rideout. The combination index was computed as CI=[D]1/[Dm]1+[D]2/[Dm]2
# In this equation [Dm]1 and [Dm]2 are the concentrations of drugs that would individually produce a specific level of effect, while [D]1 and [D]2 are the concentrations of drugs in combination that would produce the same level of effect.
# Theoretically, additivity is implied if the CI is equal to one, synergy if the CI is less than one, and antagonism if the CI is greater than one. […] At best, we can construct a range that contains the likely values for the CI, given the noise in the data. In this report, these ranges are reported in parentheses next to each point estimate of the CI. […] If the range fell entirely above 1.0, we would infer antagonistic behavior. If the range were to include 1.0, we would infer additivity.
# [2] = test system: HIV-1 LAI; assay: microbe, parasite or virus in culture; settings: Human immunodeficiency virus 1, MT2, 120 h
# Protocol: as §1, §2, §3
# In carrying out the combination experiments below, the EC50 for Compound 1 and each comparator compound was determined during the course of each study, and used in the subsequent data analysis.
# [3] = EC50 ratio 1:1 (Compound 1 to comparator)
# [4] = EC50 ratio 1:2.5 (Compound 1 to comparator)
# [5] = EC50 ratio 2.5:1 (Compound 1 to comparator)
SMILES,"Combination Indices at 50% HIV Inhibition (Confidence Interval) [1, 3]","Combination Indices at 75% HIV Inhibition (Confidence Interval) [1, 3]","Combination Indices at 90% HIV Inhibition (Confidence Interval) [1, 3]","Combination Indices at 50% HIV Inhibition (Confidence Interval) [1, 4]","Combination Indices at 75% HIV Inhibition (Confidence Interval) [1, 4]","Combination Indices at 90% HIV Inhibition (Confidence Interval) [1, 4]","Combination Indices at 50% HIV Inhibition (Confidence Interval) [1, 5]","Combination Indices at 75% HIV Inhibition (Confidence Interval) [1, 5]","Combination Indices at 90% HIV Inhibition (Confidence Interval) [1, 5]",Overall Result of two-drug combination [1],EC50 [2] [nM],Overall Result of two-drug combination ([1]; listed as nevirapine)
Nc1nc(=O)n([C@@H]2CS[C@H](CO)O2)cc1F [Emtricitabine],"0.56 (0.49, 0.62)","0.39 (0.34, 0.45)","0.28 (0.22, 0.33)","0.45 (0.38, 0.51)","0.62 (0.50, 0.74)","0.86 (0.59, 1.14)","0.22 (0.20, 0.24)","0.32 (0.28, 0.37)","0.48 (0.38, 0.58)",Synergistic,36,–
CC(C)(C)NC(=O)[C@@H]1CN(Cc2cccnc2)CCN1C[C@@H](O)C[C@@H](Cc1ccccc1)C(=O)N[C@H]1c2ccccc2C[C@H]1O [Indinavir],"0.73 (0.58, 0.88)","0.75 (0.54, 0.97)","0.77 (0.42, 1.12)","0.42 (0.22, 0.63)","0.57 (0.20, 0.95)","0.78 (0.00, 1.64)","0.56 (0.43, 0.69)","0.67 (0.45, 0.89)","0.81 (0.38, 1.23)",Moderate-,1,–
Nc1ccn([C@@H]2CS[C@H](CO)O2)c(=O)n1 [Lamivudine],"0.57 (0.41, 0.73)","0.73 (0.44, 1.02)","1.00 (0.37, 1.62)","0.17 (0.13, 0.21)","0.33 (0.23, 0.43)","0.70 (0.33, 1.06)","0.18 (0.13, 0.22)","0.38 (0.26, 0.49)","0.85 (0.40, 1.29)",–,30,–
Cc1cccc(C)c1OCC(=O)N[C@@H](Cc1ccccc1)[C@@H](O)C[C@H](Cc1ccccc1)NC(=O)[C@H](C(C)C)N1CCCNC1=O [Lopinavir],"0.68 (0.49, 0.87)","0.80 (0.48, 1.11)","0.95 (0.36, 1.55)","0.74 (0.57, 0.92)","0.56 (0.37, 0.74)","0.42 (0.21, 0.64)","0.65 (0.44, 0.86)","0.77 (0.43, 1.11)","0.92 (0.28, 1.57)",Additive-,5,–
Cc1c(O)cccc1C(=O)N[C@@H](CSc1ccccc1)[C@H](O)CN1C[C@H]2CCCC[C@H]2C[C@H]1C(=O)NC(C)(C)C [Nelfinavir],"0.38 (6.31, 0.46)","0.56 (0.47, 0.72)","0.83 (0.47, 1.18)","0.56 (0.46, 0.65)","0.89 (0.68, 1.10)","1.43 (0.89, 1.97)","0.17 (0.13, 0.21)","0.40 (0.29, 0.52)","0.95 (0.49, 1.42)",Additive-,6,–
Cc1ccnc2c1NC(=O)c1cccnc1N2C1CC1 [Nevirapine],"0.13 (0.11, 0.16)","0.17 (0.13, 0.22)","0.24 (0.14, 0.33)","0.32 (0.23, 0.40)","0.72 (0.45, 0.99)","1.69 (0.63, 2.75)","0.37 (0.29, 0.44)","0.76 (0.54, 0.98)","1.60 (0.86, 2.34)",Additive-,127,additive to synergistic
CC(C)c1nc(CN(C)C(=O)N[C@H](C(=O)N[C@@H](Cc2ccccc2)C[C@H](O)[C@H](Cc2ccccc2)NC(=O)OCc2cncs2)C(C)C)cs1 [Ritonavir],"0.25 (0.19, 0.31)","0.38 (0.26, 0.50)","0.58 (0.28, 0.88)","0.16 (0.12, 0.20)","0.25 (0.18, 0.32)","0.40 (0.19, 0.60)","0.40 (0.23, 0.57)","0.66 (0.29, 1.04)","1.11 (0.05, 2.17)",Additive-,5,–
CC(C)(C)NC(=O)[C@@H]1C[C@@H]2CCCC[C@@H]2CN1C[C@@H](O)[C@H](Cc1ccccc1)NC(=O)[C@H](CC(N)=O)NC(=O)c1ccc2ccccc2n1 [Saquinavir],"0.50 (0.40, 0.61)","0.92 (0.64, 1.19)","1.71 (0.90, 2.51)","0.24 (0.21, 0.26)","0.32 (0.27, 0.36)","0.43 (0.33, 0.52)","0.14 (0.12, 0.16)","0.31 (0.25, 0.37)","0.68 (0.45, 0.92)",Additive-,4,–
